The source of these data is patent US20200291082A1, “PREVENTION AND TREATMENT OF GRAFT-VERSUS-HOST-DISEASE WITH DEFENSINS” (priority 2017, published 2020).

Data set [1] has as its system acute graft versus host disease following stem cell transplantation. Put plainly: prophylactic oral HD5 or hBD-2 in murine model of acute graft versus host disease (Example 15). The class given is in vivo, BALB/c mice. As to the method: To determine and assess the efficacy of prophylactic treatment with oral HD5 in a murine model of acute graft versus host disease following stem cell transplantation.
Treatment regime: 22 female BALB/c mice were irradiated with 4.5 Gy (2×498 sec) at intervals of at least 4 hours on day 0. Bone marrow was harvested: hind limbs harvested from 2 female WT C57BL/6 mice aseptically. Skeletal muscle was removed and epiphysis cut away. Lumen of bone flushed with PBS and cells pelleted and taken up. Harvest of T-cells: spleens from 2 female WT C57BL/6 mice were meshed through a […] cell strainer into a PBS filled dish. Cells were taken up in PBS and transferred into a 50 mL falcon tube and spun down. Cells were taken up in 1 mL PBS and 20 μL of CD4 microbead+20 μL CD8 microbeads per spleen added for incubation for 20 min at 4 degrees C. Cells were washed with PBS and applied to MACS separation in order to positively select CD4+ and CD8+ cells. Positively selected T-cells were counted and taken up. Transplantation: directly after the second irradiation, all WT BALB/c recipient mice were injected with 5×1.000.000 BM cells (50 μL) i.v. into the retroorbital venous plexus under isoflurane anesthesia. 22 BALB/c mice were treated with 1.2 mg of HD5/kg BW/day; 1.2 mg of hBD-2/kg BW/day or 100 μL of PBS per day vial oral gavage from day 0-10.
Survival was monitored for 60 days.

Data set [2] has as its system Dextran Sodium Sulphate induced colitis. Put plainly: prophylactic murine 7-day Dextran Sodium Sulphate induced colitis model, oral and s.c. hBD2 versus oral cyclosporine (Example 4). Type of data set: in vivo, C57BL/6 mice. An excerpt:
Anti-inflammatory effect of oral and s.c. administration of hBD2 versus oral cyclosporine in a prophylactic, murine, 7-day, Dextran Sodium Sulphate induced colitis model.
80 male C57BL/6 mice housed in groups of five per cage were allocated to 7 different treatment groups. All animals had their drinking water supplemented with DSS 3% for 7 days to induce colitis characterized by epithelial damage, disruption of crypt architecture and a moderate inflammation characterized by accumulation of mononuclears and neutrophils in mucosa and submucosa. The animals were treated with oral hBD2 dosed at 0.6 mg/kg BID or 0.4 mg/kg TID; hBD2 dosed s.c. at 0.15 mg/kg BID or 0.1 mg/kg TID; or cyclosporine 50 mg/kg OD or water for 7 days.
Clinical assessment was conducted as per a scoring system (0=no blood in stool; 1=evidence of blood in stool and 2=severe bleeding). The animals were sacrificed on day 7 and colon removed for histological assessment.

The test system of data set [3] is house dust mite model of allergic asthma. Put plainly: therapeutic intranasal versus oral hBD2 in murine house dust mite model of allergic asthma, lung histopathology and cytokines (Example 11). Type of data set: in vivo, BALB/c mice. On the procedure:
To determine and assess the efficacy of IN versus oral therapeutic intervention with administration of defensins in a murine house dust mite model of allergic asthma.
Treatment regime: Female 7-10 weeks old BALB/c mice randomly allocated into 4 study groups one day prior to study start were subcutaneously (SC) sensitized to house dust mite (100 μg HDM in 200 μL saline plus Freund's complete adjuvant in 0.9% saline). Mice were intranasally (IN) challenged with HDM on day 14 (HDM 25 μg in 50 μL of saline). hBD2 was administered IN or orally (0.4 mg/kg TID IN; 0.4 mg/kg TID orally, 50 μL phosphate buffered saline) on day 14. The initial dose was administered 60 minutes prior to challenge, and the subsequent doses approximately 6 hours apart.
Lung tissue sampling: Lungs were removed from the thorax, snap frozen in liquid nitrogen and stored frozen at −80 degrees Celsius until analysis of cytokine concentration of IL-4, IL-5, IL-8 (KC), IL-9 and IL-13 in lung homogenate by ELISA. Lungs were inflated in situ in 10% buffered formalin, removed from thorax, placed individually in 10% buffered formalin, paraffin embedded in toto, sectioned and H&E/PAS stained.
Blood sampling: All terminal blood samples were collected via jugular vein bleeds. Blood was sampled to Li-heparin tubes, put on ice and immediately centrifuged at 4° C. Plasma was separated and stored at -80° C. until the potential SCFA analysis. Lung tissue sampling: The lungs were exposed and excised by gently opening the thorax and by cutting down either side of the sternum and ribs and trimming back. Lungs from the first 6 animals per group were removed from thorax, snap frozen in liquid nitrogen and stored frozen at −80° C. until analysis of cytokine concentration by ELISA.
Lungs from the other 8 animals per group were inflated in situ with 10% buffered formalin, removed from thorax, placed individually in 10% buffered formalin, paraffin embedded in toto, sectioned and H&E/PAS stained. The paraffin blocks were retained for the IHC analysis.
Read-Outs • Histopathology (H&E; PAS) (N=8/group; total N=32) • Cytokines in lung tissue homogenates (IL-4, IL-5, IL-8 (KC), IL-9 and IL-13) (N=6/group; total N=24)
Cellular influx (mononuclears, eosinophils, neutrophils) was assessed semi-quantitatively on H&E stained slides separately for peri-bronchial/bronchiolar and perivascular space as follows: • 0 absent • 1 few scattered inflammatory cells • 2 larger aggregates • 3 marked accumulation of cells
Overall score for inflammation was calculated as the sum of all individual scores.

Data set [4] deals with Dextran Sodium Sulphate induced colitis. Put plainly: therapeutic murine 14-day Dextran Sodium Sulphate induced colitis model (Example 5). The class given is in vivo, C57BL/6 mice. On the procedure: Anti-inflammatory effect of s.c. administration of hBD2 versus intraperitoneal anti TNF-α and intraperitoneal dexamethasone in a therapeutic, murine, 14-day, Dextran Sodium Sulphate induced colitis model.
70 male C57BL/6 mice housed in groups of five per cage were allocated to 7 different treatment groups. All animals had their drinking water supplemented with DSS 2% for 14 days to induce colitis resulting in significant inflammation and injury of the colonic tissue. The animals were treated with hBD2, 0.1 mg/kg s.c. BID; 0.1 mg/kg s.c. OD or 1.2 mg/kg i.v. […]
A disease activity index (DAI) scoring system was applied for clinical assessment (FIG. 7). The animals were sacrificed on day 14 and colon removed for histological assessment employing a histological scoring system (FIG. 8)

[5] abbreviates: all four hBD2 dosing groups (oral 0.6 mg/kg BID, 0.4 mg/kg TID; s.c. 0.15 mg/kg BID, 0.1 mg/kg TID), cyclosporine 50 mg/kg OD, 7 days.

Entries after “also recorded” stand apart in the source; their conditions may differ. No end group written: not given here.

“human beta defensin 2 (GIGDPVTCLKSGAICHPVFCPRRYKQIGTCGLPGTKCCKKP; not fully specified (bridges); ends and bridges not checked; listed as Homo sapiens) [hBD2]”: the mortality result in data set [1] (FIG. 58, oral treatment for 10 days from day of stem cell transplantation) is “significant reduction of mortality”. Besides, the “treated animals that had died by day 60” value in data set [1] (oral 1.2 mg/kg/day day 0-10, six out of eight PBS mice died) was “none”. Also, the “clinical score, s.c. versus oral dosing” value in data set [2] (FIG. 15) is reported as “seemed more efficacious than oral dosing”. Besides, in data set [2] (setting [5]), the clinical scores result is on record as “highly statistically significant improvement; also recorded: statistical significant effect of hBD2 on par with cyclosporine” and the “maintenance of colon length” value is listed as “highly statistically significant improvement; also recorded: statistical significant effect of hBD2 on par with cyclosporine”. For the same substance, the “clinical score, TID versus BID dosing” value in data set [2] (both administration routes) was “more efficacious than BID dosing; also recorded: superiority of TID dosing of hBD2 over BID dosing”. Further, in data set [3] (IN administration), the “IL-9 level in lung tissue homogenates” value is listed as “Significant effects” and the “IL-13 level in lung tissue homogenates” value was “Significant effects”. For the same substance, the “histological inflammation of lung tissue” value in data set [3] (hBD2 both oral and intranasal 0.4 mg/kg TID on day 14, versus HDM challenged vehicle) was “effectively inhibited the increase in histological inflammation of lung tissue”. In data set [3] (oral administration), the “IL-4 level in lung tissue homogenates” value is “Significant effects”, the “IL-9 level in lung tissue homogenates” value was “Significant effects” and the “IL-13 level in lung tissue homogenates” value is listed as “Significant effects”. The “histological score, compared with references” value in data set [4] (FIG. 16, hBD2 0.1 mg/kg versus dexamethasone 1 mg/kg and mouse anti TNF-α 300 μg/mouse) is “on par with dexamethasone 1 mg/kg and superior to mouse anti TNF-α 300 μg/mouse”. Besides, the “disease activity index (DAI)” value in data set [4] (hBD2 0.1 mg s.c. OD, Dexamethasone 1 mg/kg i.p. OD, day 8 to day 14) is “statistically significant effect on DAI”. In addition, in data set [4] (hBD2 0.1 mg/kg s.c. OD, Dexamethasone 1 mg/kg i.p. OD, colon day 14), the histological score entry is listed as “statistically significant effect on histological score; also recorded: statistical significant effect”.
